# Laboratory results published in US20250296953A1, “3,4-THIAZOLO-STEROIDS AND METHODS OF MAKING AND USING THE SAME” (Arkansas State University - Jonesboro, priority 2018, published 2025).
# Like-named read-outs stand apart in the source and are kept apart here.
# Columns and labels:
# HCT-15 (Colon Cancer) = assay: NCI 60 one dose screen; assay type: cell-based, human
# SF-539 = assay: NCI 60 one dose screen; assay type: cell-based, human; conditions: one dose; CNS Cancer; SF-539
# [1] = tested on: 60 different human tumor cell lines; assay: cells
# RPMI-8226 = assay: NCI 60 five dose screen
# SR = assay: NCI 60 five dose screen
smiles,measurement,setting,value
"C[C@]12CCc3sc(Nc4cccc(O)c4)nc3C1=CC[C@@H]1[C@@H]2CC[C@]2(C)C(=O)CC[C@@H]12 [IIa.17, (1S,2R,13R,14S,18S)-7-(3-hydroxyanilino)-2,18-dimethyl-6-thia-8-azapentacyclo[11.7.0.02,10.05,9.014,18]icosa-5(9),7,10-trien-17-one]",Growth Percent,HCT-15 (Colon Cancer),−47.90%
same,Growth Percent,SF-539,−41.82%
same,GI50,[1]; 60 cell,5.52 µM
same,CC50,"[1]; 60 cell, read-out: LC50",> 100 µM
same,GI50,[1]; 786-0,3.02 µM
same,CC50,"[1]; 786-0, read-out: LC50",> 100 µM
same,GI50,[1]; A498,28.8 µM
same,CC50,"[1]; A498, read-out: LC50",> 100 µM
same,GI50,[1]; A549,26.4 µM
same,CC50,"[1]; A549, read-out: LC50",> 100 µM
same,GI50,[1]; ACHN,7.81 µM
same,CC50,"[1]; ACHN, read-out: LC50",> 100 µM
same,GI50,[1]; BT-549,4.58 µM
same,CC50,"[1]; BT-549, read-out: LC50",> 100 µM
same,GI50,[1]; CAKI-1,13 µM
same,CC50,"[1]; CAKI-1, read-out: LC50",70 µM
same,GI50,[1]; CCRF-CEM,2.84 µM
same,CC50,"[1]; CCRF-CEM, read-out: LC50",> 100 µM
same,GI50,[1]; COLO 205,12.3 µM
same,CC50,"[1]; COLO 205, read-out: LC50",> 100 µM
same,GI50,[1]; DU-145,4.34 µM
same,CC50,"[1]; DU-145, read-out: LC50",> 100 µM
same,GI50,[1]; EKVX,28.8 µM
same,CC50,"[1]; EKVX, read-out: LC50",> 100 µM
same,GI50,[1]; HCC 2998,18.2 µM
same,CC50,"[1]; HCC 2998, read-out: LC50",> 100 µM
same,GI50,[1]; HCT-15,2.53 µM
same,CC50,"[1]; HCT-15, read-out: LC50",> 100 µM
same,GI50,[1]; HCT-116,1.91 µM
same,CC50,"[1]; HCT-116, read-out: LC50",9.09 µM
same,GI50,[1]; HOP-62,22.4 µM
same,CC50,"[1]; HOP-62, read-out: LC50",> 100 µM
same,GI50,[1]; HOP-92,18.7 µM
same,GI50,[1]; HT-29,3.9 µM
same,CC50,"[1]; HT-29, read-out: LC50",75.2 µM
same,GI50,[1]; Hs-578T,12 µM
same,CC50,"[1]; Hs-578T, read-out: LC50",> 100 µM
same,GI50,[1]; IGROV-1,8.21 µM
same,CC50,"[1]; IGROV-1, read-out: LC50",> 100 µM
same,GI50,[1]; K562,2.79 µM
same,CC50,"[1]; K562, read-out: LC50",> 100 µM
same,GI50,[1]; KM12,8.27 µM
same,CC50,"[1]; KM12, read-out: LC50",94.7 µM
same,GI50,[1]; LOX IMVI,3.22 µM
same,CC50,"[1]; LOX IMVI, read-out: LC50",48.1 µM
same,GI50,[1]; M14,7.88 µM
same,CC50,"[1]; M14, read-out: LC50",> 100 µM
same,GI50,[1]; MCF7,3.85 µM
same,CC50,"[1]; MCF7, read-out: LC50",> 100 µM
same,GI50,[1]; MDA-MB-231,13.4 µM
same,CC50,"[1]; MDA-MB-231, read-out: LC50",> 100 µM
same,GI50,[1]; MDA-MB-435,3.49 µM
same,CC50,"[1]; MDA-MB-435, read-out: LC50",> 100 µM
same,GI50,[1]; MDA-MB-468,3.59 µM
same,CC50,"[1]; MDA-MB-468, read-out: LC50",54.7 µM
same,GI50,[1]; MOLT-4,2.84 µM
same,CC50,"[1]; MOLT-4, read-out: LC50",≥ 100 µM
same,GI50,[1]; Malme-3M,21.2 µM
same,CC50,"[1]; Malme-3M, read-out: LC50",> 100 µM
same,GI50,[1]; NCI-H23,18.1 µM
same,CC50,"[1]; NCI-H23, read-out: LC50",> 100 µM
same,GI50,[1]; NCI-H226,7.36 µM
same,CC50,"[1]; NCI-H226, read-out: LC50",> 100 µM
same,GI50,[1]; NCI-H322M,50.5 µM
same,CC50,"[1]; NCI-H322M, read-out: LC50",> 100 µM
same,GI50,[1]; NCI-H460,4.65 µM
same,CC50,"[1]; NCI-H460, read-out: LC50",> 100 µM
same,GI50,[1]; NCI-H522,6.6 µM
same,CC50,"[1]; NCI-H522, read-out: LC50",69.3 µM
same,GI50,[1]; NCI/ADR-RES,6.34 µM
same,CC50,"[1]; NCI/ADR-RES, read-out: LC50",> 100 µM
same,GI50,[1]; OVCAR-3,4.41 µM
same,CC50,"[1]; OVCAR-3, read-out: LC50",> 100 µM
same,GI50,[1]; OVCAR-4,18.9 µM
same,CC50,"[1]; OVCAR-4, read-out: LC50",> 100 µM
same,GI50,[1]; OVCAR-5,24.5 µM
same,CC50,"[1]; OVCAR-5, read-out: LC50",> 100 µM
same,GI50,[1]; OVCAR-8,7.61 µM
same,CC50,"[1]; OVCAR-8, read-out: LC50",> 100 µM
same,GI50,[1]; RXF 393,3.18 µM
same,CC50,"[1]; RXF 393, read-out: LC50",48.9 µM
same,GI50,[1]; SF-268,5.95 µM
same,CC50,"[1]; SF-268, read-out: LC50",> 100 µM
same,GI50,[1]; SK-MEL-2,17.1 µM
same,CC50,"[1]; SK-MEL-2, read-out: LC50",> 100 µM
same,GI50,[1]; SK-MEL-5,10.2 µM
same,CC50,"[1]; SK-MEL-5, read-out: LC50",62.5 µM
same,GI50,[1]; SK-MEL-28,20.5 µM
same,CC50,"[1]; SK-MEL-28, read-out: LC50",> 100 µM
same,GI50,[1]; SK-OV-3,34 µM
same,CC50,"[1]; SK-OV-3, read-out: LC50",> 100 µM
same,GI50,[1]; SN12C,3.81 µM
same,CC50,"[1]; SN12C, read-out: LC50",> 100 µM
same,GI50,[1]; SNB-19,12.9 µM
same,CC50,"[1]; SNB-19, read-out: LC50",> 100 µM
same,GI50,[1]; SNB-75,5.4 µM
same,CC50,"[1]; SNB-75, read-out: LC50",> 100 µM
same,GI50,[1]; SW-620,3.38 µM
same,CC50,"[1]; SW-620, read-out: LC50",> 100 µM
same,GI50,[1]; T47D,3.5 µM
same,CC50,"[1]; T47D, read-out: LC50",> 100 µM
same,GI50,[1]; TK-10,7.47 µM
same,CC50,"[1]; TK-10, read-out: LC50",> 100 µM
same,GI50,[1]; U-251,4.41 µM
same,CC50,"[1]; U-251, read-out: LC50",58.6 µM
same,GI50,[1]; UACC-62,9.54 µM
same,CC50,"[1]; UACC-62, read-out: LC50",89.7 µM
same,GI50,[1]; UACC-257,23.8 µM
same,CC50,"[1]; UACC-257, read-out: LC50",> 100 µM
same,GI50,[1]; UO-31,5.26 µM
same,CC50,"[1]; UO-31, read-out: LC50",49.9 µM
same,GI50,"RPMI-8226; Homo sapiens, RPMI-8226",2.73 µM
same,CC50,"RPMI-8226; Homo sapiens, RPMI-8226, read-out: LC50",> 100 µM
same,TGI,"RPMI-8226; RPMI-8226 (Leukemia), five dose",7.44E−6
same,GI50,"SR; Homo sapiens, SR",2.58 µM
same,CC50,"SR; Homo sapiens, SR, read-out: LC50",> 100 µM
same,TGI,"SR; SR (Leukemia), five dose",>1.00E−4
